Publication PMC8273887 (Journal of Medicinal Chemistry, 2021)

Tests used:
SH-SY5Y cells = test: Antiapoptotic assay (etoposide-induced cell death, caspase-3/7 activity); type: cell-based, human; details: etoposide 10 μM and peptide 10 μM added at the same time, caspase-3/7 activity after 6 h, n ≥ 3 independent experiments
Description: (A) Cell death was induced with etoposide (10 μM), and cells were treated with 10 μM of TFF3. Etoposide and TFF3 were added at the same time. Caspase-3/7 activity was measured after 6 h. […] Z-DEVD-FMK (50 μM; caspase-3 inhibitor) was used as the positive control. E: etoposide, E + C3I: etoposide + caspase-3 inhibitor. One-way analysis of variance (ANOVA) followed by Dunnett correction was performed to assess differences between treated cells and etoposide only. *p < 0.05, **p < 0.01.
SH-SY5Y cells were seeded (13–15 × 10^3 cells/well) in 96-well microplates in DMEM with 10% (v/v) fetal calf serum (FCS; Gibco), 2 mM L-glutamine, and 100 units/mL penicillin/streptomycin. The media was replaced with low riboflavin, complete Ham’s F12 medium with 10% (v/v) fetal calf serum, 2 mM L-glutamine, and 100 units/mL penicillin/streptomycin before the live-cell imaging. Cells were treated with the etoposide or the caspase-3 inhibitor or TFF3(C^57Acm) or TFF3 homodimer in the presence of IncuCyte caspase-3/7 green apoptosis reagent. Data were acquired using an IncuCyte ZOOM instrument with standard scan type setting (4 images per well) every 2 h for 48 h.

CXCR4 = biological target: T1, CXCR4 (Homo sapiens, UniProt P61073); test: Inositol 1 phosphate (IP1) accumulation assay (HTRF) in COS-7 cells transfected with CXCR4; type: cell-based; details: COS-7 transiently co-transfected with CXCR4-eYFP and chimeric GαΔ6qi4myr; 10^-12 to 10^-5 M, 1 h, 37 °C; HTRF; n ≥ 2
T1 construct: expressed in transfected cells; host or cells: COS-7 (African green monkey), transient co-transfection with GαΔ6qi4myr
Outline: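 COS-7 cells transiently co-transfected with CXCR4-eYFP and chimeric GαΔ6qi4myr were stimulated 1 h at 37 °C in HBSS with 20 mM LiCl; final ligand 10^–12 to 10^–5 M CXCL12, 1 or 10 μM TFF3 forms. IP1 measured by competitive HTRF (665/620 ratio), normalized to CXCL12 response.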

human erythrocytes = test: Hemolysis analysis; type: cell-based; details: 1 h, 37 °C, absorbance 405 nm, 0.2–25 μM final concentration, two independent experiments
From the text: Considering the therapeutic potential of TFF3, it was important to determine any cytotoxic and hemolytic effects early on to avoid problems in later stages of drug development. We therefore assessed cytotoxicity on HEK-293 cells and hemolytic effects in human erythrocytes. We treated the cells with TFF3(C^57Acm) and TFF3 homodimer and used resazurin, a blue dye that produces strong fluorescence when reduced by living cells, as the readout of the number of viable cells.[60] In the hemolytic assay, we evaluated hemoglobin release, an indicator of erythrocyte lysis, upon exposure to the peptides.
Monomeric and homodimeric TFF3 were serially diluted twofold in 0.9% NaCl and seeded (25 μL) in a 384-well polypropylene plate (0.2–25 μM final concentration). […] The cells were counted using a Neubauer hemocytometer and then diluted to 1 × 10^8/mL in 0.9% NaCl. […] Following incubation, the plates were centrifuged at 1000g for 10 min to pellet cells and debris and then 25 μL of the supernatant was transferred into a 384-well flat-bottom PS plate and absorbance (Abs) was read at 405 nm using a Tecan M1000 Pro monochromator plate reader. Percent hemolysis was calculated using the following equation: Hemolysis (%) = (Abssample – Absnegative/Abspositive – Absnegative) × 100. […]

T1 sequence (P61073 whole entry): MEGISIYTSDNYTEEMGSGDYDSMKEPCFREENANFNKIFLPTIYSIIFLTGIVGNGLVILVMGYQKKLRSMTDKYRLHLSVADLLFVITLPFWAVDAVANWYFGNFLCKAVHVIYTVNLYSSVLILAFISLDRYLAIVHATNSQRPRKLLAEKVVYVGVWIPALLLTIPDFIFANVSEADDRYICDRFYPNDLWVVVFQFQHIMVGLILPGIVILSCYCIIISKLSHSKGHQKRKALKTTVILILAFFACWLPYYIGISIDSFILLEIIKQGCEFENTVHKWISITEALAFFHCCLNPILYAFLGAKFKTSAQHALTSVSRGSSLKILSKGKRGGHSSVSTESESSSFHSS

With `CC[C@H](C)[C@@H]1NC(=O)[C@H](CCCNC(=N)N)NC(=O)[C@H](CO)NC(=O)[C@H](CC(=O)O)NC(=O)[C@H](Cc2ccccc2)NC(=O)[C@@H]2CSSC[C@H](NC(=O)[C@H](CCC(N)=O)NC(=O)[C@H](CC(N)=O)NC(=O)[C@H](C)NC(=O)[C@H](CO)NC(=O)[C@H](CC(C)C)NC(=O)CNC(=O)[C@@H](NC(=O)[C@H](Cc3ccc(O)cc3)NC(=O)[C@H](CCC(=O)O)NC(=O)[C@@H](N)CCC(=O)O)C(C)C)C(=O)N[C@@H](C)C(=O)N[C@@H](C(C)C)C(=O)N3CCC[C@H]3C(=O)N[C@@H](C)C(=O)N[C@@H](CCCCN)C(=O)N[C@@H](CC(=O)O)C(=O)N[C@@H](CCCNC(=N)N)C(=O)N[C@@H](C(C)C)C(=O)N[C@@H](CC(=O)O)C(=O)N[C@H]3CSSC[C@H](NC(=O)CNC(=O)[C@H](CCCNC(=N)N)NC(=O)[C@H](CC(N)=O)NC(=O)[C@H](CC(N)=O)NC(=O)[C@H](CSSC[C@@H](C(=O)N[C@@H](Cc4ccccc4)C(=O)N[C@@H](CCCCN)C(=O)N4CCC[C@H]4C(=O)N[C@@H](CC(C)C)C(=O)N[C@@H](CCC(N)=O)C(=O)N[C@@H](CCC(=O)O)C(=O)N[C@@H](C)C(=O)N[C@@H](CCC(=O)O)C(=O)N[C@@H](CSCNC(C)=O)C(=O)N[C@H](C(=O)N[C@@H](Cc4ccccc4)C(=O)O)[C@@H](C)O)NC(=O)[C@H](Cc4c[nH]c5ccccc45)NC(=O)[C@@H]4CCCN4C(=O)[C@H](C(C)C)NC(=O)CNC(=O)[C@@H]4CCCN4C1=O)NC(=O)[C@H](CCC(=O)O)NC(=O)[C@H](CCCCN)NC(=O)[C@@H]1CCCN1C(=O)[C@H]([C@@H](C)O)NC(=O)[C@H](C(C)C)NC(=O)[C@H](Cc1c[nH]cn1)NC(=O)[C@@H]1CCCN1C(=O)[C@H](Cc1ccc(O)cc1)NC(=O)CNC3=O)C(=O)N2` [TFF3(C^57Acm)] the “reduction of etoposide-induced cell death (caspase-3/7 active objects)” value (SH-SY5Y cells) was “statistically significant (p < 0.05) reduction in cell death”, the “concentration up to which CXCR4 was not activated (agonism, IP1 accumulation)” value (CXCR4) was greater than 10 µM and the “concentration up to which no hemolytic effect was displayed” value (human erythrocytes) was greater than 25 µM.
